Measurements taken from publication PMC11565046, “Rational design of 2H-chromene-based antiphytovirals that inhibit virion assembly by outcompeting virus capsid-RNA interactions” (iScience, 2024).
Where two headings read alike, the source gives them in different places.

What was measured:
PVY [1] = assay: Inactivating activity against PVY, half-leaf method on Chenopodium amaranticolor; format: in vivo, potato virus Y; conditions: Potato virus Y, in Chenopodium amaranticolor
Procedure: (§1) According to previous reports,[46] PVY was infested in Nicotiana tabacum K326, and PVY was harvested and purified after showing severe infection symptoms on the leaves. The literature-guided protocol was followed to assess the curative, prophylactic, and […] potential of the target compounds under investigation.[15]
Target compound solution (1,000 μg/mL) and 2 × virus solution were combined in equal quantities and incubated for 30 min. Evenly distribute emery onto the leaf blades, and apply the mixture of virus and compound solution onto the right side of C. amaranticolor leaf blades. Following this, an identical quantity of a 1× virus solution was applied to the untreated side of the leaf. Following a duration of 1.5 h, the emery residue present on the leaf surface was removed using a rinsing process utilizing water. The plants were incubated within a controlled greenhouse environment, maintaining a consistent temperature of 25°C. After 5−7 days, they proceeded to statistics the number of necrotic spots on the leaves. For each chemical, triplicate experiments were undertaken, and the average percentage of inhibition was subsequently determined.

PVY [2] = assay: Protective activity against PVY, half-leaf method on Chenopodium amaranticolor; format: in vivo; conditions: Potato virus Y, in Chenopodium amaranticolor; 500 μg/mL; Chenopodium amaranticolor leaves; average of three replicates
Procedure: as §1
A 500 μg/mL solution of the targeted compound was delicately applied to one side of C. amaranticolor leaves, while the other side was treated with a 1% Tween 80 aqueous solution. The plants were positioned in a greenhouse set at 25°C. Following a 24 h period, the entire leaf surface was inoculated with PVY by uniformly distributing 200–300 mesh emery. After 1.5 h, the emery was washed off with water, and the plants were returned to the greenhouse. After 5–7 days, the number of necrotic spots was tallied, with the assessment based on the greenhouse population. Each compound was tested in triplicate, and the average inhibition rate was subsequently calculated.

PVY [3] = assay: Curative activity against PVY, half-leaf method on Chenopodium amaranticolor; format: in vivo; conditions: Potato virus Y, in Chenopodium amaranticolor; 500 μg/mL; Chenopodium amaranticolor leaves; average of three replicates
Excerpt: as §1
To assess the curative effectiveness against PVY, a uniform layer of 200–300 mesh emery was applied to the leaves of C. amaranticolor, followed by rubbing with a virus solution. For 1.5 h, then the emery was washed off with water. After the leaves naturally dried, a 500 μg/mL solution of the test compound was carefully applied to one side of the leaf, while the opposite side received a 1% Tween 80 solution as a control. The plants were subsequently incubated in a greenhouse maintained at 25°C. After 5−7 days, the presence of necrotic spots on the leaves was recorded, with each compound tested on three replicate plants. The average inhibition rate was determined by analyzing the data from these replications.

[4] = Chenopodium amaranticolor leaves, read-out: EC50 for inactivating activity
[5] = inactivating activity, Table S1, read-out: Experimental pEC50 (converted)

Row | Structure (SMILES) | EC50 (PVY [1]; [4]) [µg/mL] | EC50 (PVY [1]; [5]) [µM] | melting point [°C] | inhibition at 500 µg/mL (PVY [2]) [%] | inhibition at 500 µg/mL (PVY [3]) [%]
1 | COc1ccc(S(=O)(=O)Nc2ccc(/N=C/c3ccc4c(c3O)C=CC(C)(C)O4)cc2)cc1 [Compound C1, (E) -N-(4-(((5-hydroxy-2,2-dimethyl-2H-chromen-6-yl)methylene)amino)phenyl) -4-methoxybenzenesulfonamide] | 441 ± 5.2 | 951 | 139 to 141 | – | –
2 | CC1(C)C=Cc2c(ccc(/C=N/c3ccc(NS(=O)(=O)c4ccc(C(F)(F)F)cc4)cc3)c2O)O1 [Compound C2] | 255.7 ± 0.72 | 509 | 132 to 134 | – | –
3 | CCCCCCCCS(=O)(=O)Nc1ccc(/N=C/c2ccc3c(c2O)C=CC(C)(C)O3)cc1 [Compound C3] | 605 ± 12.2 | 1290 | 94 to 96 | – | –
4 | CC1(C)C=Cc2c(ccc(/C=N/c3ccc(NS(=O)(=O)c4cccs4)cc3)c2O)O1 [Compound C4] | 667 ± 20.1 | 1520 | 148 to 150 | – | –
5 | CC1(C)C=Cc2c(ccc(/C=N/c3ccc(NS(=O)(=O)c4cccnc4)cc3)c2O)O1 [Compound C9] | 310 ± 8.6 | 713 | 150 to 152 | – | –
6 | CC1(C)C=Cc2c(ccc(/C=N/c3ccc(NS(=O)(=O)c4ccc(Br)s4)cc3)c2O)O1 [Compound C10] | 492 ± 13.3 | 951 | 140 to 142 | 60 to 70 | 60 to 70
7 | CC1(C)C=Cc2c(ccc(/C=N/c3ccc(NS(=O)(=O)c4cccc(C#N)c4)cc3)c2O)O1 [Compound C11] | 703 ± 25.3 | 1530 | 152 to 154 | – | –
8 | CC1(C)C=Cc2c(ccc(/C=N/c3ccc(NS(=O)(=O)c4ccc([N+](=O)[O-])cc4)cc3)c2O)O1 [Compound C12] | 400 ± 7.5 | 836 | 164 to 166 | – | –
9 | CC1(C)C=Cc2c(ccc(/C=N/c3ccc(NS(=O)(=O)C4CC4)cc3)c2O)O1 [Compound C13] | 531 ± 20.7 | 1330 | 147 to 149 | – | –
10 | CC1(C)C=Cc2c(ccc(/C=N/c3ccc(NS(=O)(=O)c4cc(Cl)ccc4Cl)cc3)c2O)O1 [Compound C14] | 751 ± 19.4 | 1500 | 148 to 150 | – | –
11 | CC1(C)C=Cc2c(ccc(/C=N/c3ccc(NS(=O)(=O)c4ccccc4)cc3)c2O)O1 [Compound C17] | 168 ± 4.8 | 388 | 134 to 136 | – | –
12 | Cc1cc(C)c(S(=O)(=O)Nc2ccc(/N=C/c3ccc4c(c3O)C=CC(C)(C)O4)cc2)c(C)c1 [Compound C19] | 492 ± 11.2 | 1040 | 137 to 139 | – | –
13 | CC1(C)C=Cc2c(ccc(/C=N/c3ccc(NS(=O)(=O)c4ccc(C(C)(C)C)cc4)cc3)c2O)O1 [Compound C20] | 1000 | 2050 | 142 to 144 | – | –
14 | CC1(C)C=Cc2c(ccc(/C=N/c3ccc(NS(=O)(=O)c4ccccc4C(F)(F)F)cc3)c2O)O1 [Compound C22] | 587 ± 9.9 | 1170 | 130 to 132 | – | –
15 | CC1(C)C=Cc2c(ccc(/C=N/c3ccc(NS(=O)(=O)c4ccc(Cl)s4)cc3)c2O)O1 [Compound C24] | 754 ± 10.3 | 1590 | 141 to 143 | 60 to 70 | 60 to 70
16 | CC1(C)C=Cc2c(ccc(/C=N/c3ccc(NS(=O)(=O)c4ccccc4Cl)cc3)c2O)O1 [Compound C25] | 244 ± 10.2 | 521 | 166 to 168 | – | –
17 | CC1(C)C=Cc2c(ccc(/C=N/c3ccc(NS(=O)(=O)c4ccc(OC(F)(F)F)cc4)cc3)c2O)O1 [Compound C30] | 834 ± 18.3 | 1610 | 128 to 130 | – | –
18 | CC1(C)C=Cc2c(ccc(/C=N/c3ccc(NS(=O)(=O)c4ccc(Cl)cc4Cl)cc3)c2O)O1 [Compound C31] | 976 ± 20 | 1950 | 154 to 156 | – | –
19 | CC1(C)C=Cc2c(ccc(/C=N/c3ccc(NS(=O)(=O)c4ccccc4Br)cc3)c2O)O1 [Compound C33] | 139 ± 3.2 | 272 | 170 to 172 | – | –
20 | Cc1noc(C)c1S(=O)(=O)Nc1ccc(/N=C/c2ccc3c(c2O)C=CC(C)(C)O3)cc1 [Compound C39] | 397.1 ± 2.3 | 877 | 195 to 197 | – | –
21 | CC1(C)C=Cc2c(ccc(C=Nc3ccc(NS(=O)(=O)CC45CCC(CC4=O)C5(C)C)cc3)c2O)O1 (stereo not drawn) [Compound C40] | 204 ± 7.1 | 402 | 186 to 188 | – | –

Second part, led by results:

Row | EC50 (PVY [1]; [4]) [µg/mL] | EC50 (PVY [1]; [5]) [µM] | melting point [°C] | Structure (SMILES) | inhibition at 500 µg/mL (PVY [2]) [%] | inhibition at 500 µg/mL (PVY [3]) [%]
22 | 165 ± 8.7 | 366 | 144 to 146 | CC1(C)C=Cc2c(ccc(/C=N/c3ccc(NS(=O)(=O)c4ccc(F)cc4)cc3)c2O)O1 [Compound C5] | – | –
23 | 100 ± 5.7 | 222 | 164 to 166 | CC1(C)C=Cc2c(ccc(/C=N/c3ccc(NS(=O)(=O)c4cccc(F)c4)cc3)c2O)O1 [Compound C7] | 60 to 70 | –
24 | 369 ± 9.9 | 667 | 175 to 177 | CC1(C)C=Cc2c(ccc(/C=N/c3ccc(NS(=O)(=O)c4ccccc4F)cc3)c2O)O1 [Compound C8] | – | –
25 | 903 ± 14.3 | 1920 | 180 to 182 | CC1(C)C=Cc2c(ccc(/C=N/c3ccc(NS(=O)(=O)c4cc(F)ccc4F)cc3)c2O)O1 [Compound C15] | – | –
26 | 688 ± 17.2 | 1350 | 161 to 163 | CC1(C)C=Cc2c(ccc(/C=N/c3ccc(NS(=O)(=O)c4cccc(Br)c4)cc3)c2O)O1 [Compound C16] | 60 to 70 | 60 to 70
27 | 202 ± 3.8 | 438 | 121 to 123 | CCc1ccc(S(=O)(=O)Nc2ccc(/N=C/c3ccc4c(c3O)C=CC(C)(C)O4)cc2)cc1 [Compound C18] | – | –
28 | 1020 | 2080 | 161 to 163 | CC(=O)Nc1ccc(S(=O)(=O)Nc2ccc(/N=C/c3ccc4c(c3O)C=CC(C)(C)O4)cc2)cc1 [Compound C21] | – | –
29 | 871 ± 17.3 | 1730 | 211 to 213 | CC1(C)C=Cc2c(ccc(/C=N/c3ccc(NS(=O)(=O)c4cc(Cl)cc(Cl)c4)cc3)c2O)O1 [Compound C23] | – | –
30 | 100 ± 4.5 | 213 | 207 to 209 | CC1(C)C=Cc2c(ccc(/C=N/c3ccc(NS(=O)(=O)c4cc(F)cc(F)c4)cc3)c2O)O1 [Compound C26] | 60 to 70 | 60 to 70
31 | 803 ± 12.3 | 1600 | 123 to 125 | CC1(C)C=Cc2c(ccc(/C=N/c3ccc(NS(=O)(=O)c4cccc(C(F)(F)F)c4)cc3)c2O)O1 [Compound C35] | – | –
32 | 781 ± 15.3 | 1460 | 115 to 117 | CC(C)=CCCC1(C)C=Cc2c(ccc(/C=N/c3ccc(NS(=O)(=O)c4ccc(Cl)cc4)cc3)c2O)O1 (stereo not drawn) [Compound C41] | – | –
33 | 512 ± 11 | 944 | 97 to 99 | CC(C)=CCCC1(C)C=Cc2c(ccc(/C=N/c3ccc(NS(=O)(=O)c4ccc(Cl)s4)cc3)c2O)O1 (stereo not drawn) [Compound C43] | – | –
34 | 882 ± 17.3 | 1710 | 84 to 86 | CC(C)=CCCC1(C)C=Cc2c(ccc(/C=N/c3ccc(NS(=O)(=O)c4cccc(C)c4)cc3)c2O)O1 (stereo not drawn) [Compound C44] | – | –
35 | 516 ± 9 | 991 | 113 to 115 | CC(C)=CCCC1(C)C=Cc2c(ccc(/C=N/c3ccc(NS(=O)(=O)c4cccc(F)c4)cc3)c2O)O1 (stereo not drawn) [Compound C45] | – | –
36 | 522 ± 8.1 | 916 | 130 to 132 | CC(C)=CCCC1(C)C=Cc2c(ccc(/C=N/c3ccc(NS(=O)(=O)c4ccc(C(F)(F)F)cc4)cc3)c2O)O1 (stereo not drawn) [Compound C46] | – | –
37 | 630 ± 11.2 | 1170 | 80 to 82 | CC(C)=CCCC1(C)C=Cc2c(ccc(/C=N/c3ccc(NS(=O)(=O)c4c(F)cccc4F)cc3)c2O)O1 (stereo not drawn) [Compound C47] | – | –
38 | 717 ± 17.8 | 1330 | 138 to 140 | CC(C)=CCCC1(C)C=Cc2c(ccc(/C=N/c3ccc(NS(=O)(=O)c4cc(F)cc(F)c4)cc3)c2O)O1 (stereo not drawn) [Compound C48] | – | –
39 | 553 ± 9.3 | 944 | 75 to 77 | CC(C)=CCCC1(C)C=Cc2c(ccc(/C=N/c3ccc(NS(=O)(=O)c4ccc(Br)s4)cc3)c2O)O1 (stereo not drawn) [Compound C49] | – | –
